We go through six compounds from patent US20260354377A1, “INSECTICIDAL AND ARACHNIDICIDAL COMPOSITIONS AND USES THEREOF” (priority 2023, published 2026).

For data set [1], the system named is Blata orientalis. Briefly: Evaluation of insecticidal effect of individual components (Example 9). In kind it is in vivo, Oriental cockroach. To be noted: 0.3 grams on back, pairs; for Alive: weight %: caprylic acid 0.8, Miglyol 0.2, Tween 80 0.015, lecithin 0.15, DPPG 0.12, xanthan gum 0.0075; for Dead: caprylic acid 0.8, Emulsion Table 1 5.0 weight %. Here is the method:
In order to evaluate the effect of individual components, the higher concentration of each was used, these are marked with an asterisk as presented in Table 9
The cockroach Blata orientalis was used as described in Example 1 part 3 because of its size, ease of application and predictable response to the formulation.
Pairs of insects were treated by applying 0.3 grams (ml) of test items from Table 9 above directly onto their backs following which individual insects were placed in separate plastic containers and observed over a period of one hour and overnight. A 5% aqueous dispersion of the emulsion from Table 1 and sterile distilled water were used as controls.

The nature of data set [2]: Stability of aqueous dispersions of components. In kind it is physicochemical. To be noted: laboratory homogeniser dispersion in water.
For data set [3], the system named is Blata orientalis. Briefly: Efficacy of NAC and PCA supplemented Reactive Emulsions, spray (Example 13). It counts as in vivo, Oriental Cockroach. To be noted: 50 mM citrate buffer, NAC or PCA 0.1%, emulsion 5% where present; for Alive / Immobile / Moribund: ten insects. On the procedure:
In one embodiment of the present invention, Reactive Emulsions of this invention are acidic and are kept at or below pH 5.5 to retain reactivity. For this reason 0.1% W/W solutions of NAC and PCA were prepared in 50 mM sodium citrate buffer at pH 5.0 and reduced fatty acid Reactive Emulsion concentrate (Table 15) was added to these at 5% by weight.
NAC and PCA controls were prepared by dissolving 0.1% of each in 50 mM sodium citrate buffer • reduced fatty acid Reactive Emulsions were used to illustrate the additive effect of NAC and PCA because the rate of activity of higher concentration fatty acid Emulsions would swamp the effect.
A 5% by weight suspension of Emulsion concentrate was prepared in 50 mM sodium citrate buffer without either NAC or PCA was prepared as a negative control and 50 mM buffer on its own was used as a blank.
The Oriental Cockroach Blata Orientalis was used to evaluate the efficacy of the NAC and PCA supplemented reactive emulsion and the experimental design was the same as in Example 1. Individual insects were lifted with tweezers and sprayed with either NAC or PCA supplemented test formulations, negative control or buffer blank, ten insects in each case, and evaluated after 1 hour and 10 hours.

Data set [4] in a line: Solubility and solution properties. The settings on record: for solubility: water or oil. On the procedure:
An aqueous dispersion of de-lipidised lecithin and DPPG is prepared by blending the component with water at the desired concentration and allowing at least one hour to fully hydrate.
Both of these are water soluble and may be added to the water phase of either the emulsion concentrate or the diluted suspension.

Data set [5] deals with Blata orientalis. Briefly: Efficacy of Permethrin delivered in reduced fatty acid Reactive Emulsion, spray (Example 12). In kind it is in vivo, Oriental Cockroach. The settings on record: emulsion concentrates diluted to 5% in water, where present, 0.1%. On the procedure:
Permethrin was added to the oil phase at 2 grams in 20 of total oil (oil phase) which is 2% of the concentrated reactive emulsion. For use in the test the concentrate was diluted to 5% in water, that is 1% oil phase containing 0.1% Permethrin (10% of recommended dose).
A Reactive Emulsion control was prepared using the formulation in Table 13 by replacing Permethrin with Miglyol at 15% and free fatty acid at 5%.
The Oriental Cockroach Blata Orientalis was used to evaluate the efficacy of the non-reactive emulsion and the experimental design was the same as in Example 1. Individual insects were lifted with tweezers and sprayed with either non-reactive test formulation, positive control or water blank, ten insects in each case, and evaluated after 1 hour and 10 hours.

The test system of data set [6] is lice. To be noted: approved by FDA as a 1% solution; cited from earlier work.
For data set [7], the system named is hematophagous insects. To be noted: cited from earlier work.

The structures appear in SMILES notation. “Also recorded” adds a separate entry of the source.

Consider `CCCCCCCC(=O)O` [Caprylic acid], for which the Alive in data set [1] (1 hour post treatment) amounted to 2; in data set [1] (18 hours post treatment), 1. Besides, the Dead in data set [1] (18 hours post treatment) is on record as 1; in data set [1] (18 hours post treatment, listed as caprylic acid), “one”. Also, in data set [2], the “stability of aqueous dispersion” value was “co-acervate and settle out within minutes of being formed”.

In the case of `CCCCCCCCCCCCCCCC(=O)OCC(COP(=O)(O)OCC(O)CO)OC(=O)CCCCCCCCCCCCCCC` (centres unmarked) [DPPG, di-palmitoyl phosphatidyl glycerol], the Alive in data set [1] (1 hour post treatment) and in data set [1] (18 hours post treatment) was 2 each time. The “stability of aqueous dispersion” value in data set [2] was “tendency to settle out”.

Take `CC(=O)N[C@@H](CS)C(=O)O` [N-acetyl Cysteine, N-Acetyl Cysteine]: the Mortality / efficacy in data set [3] (1 hour, 60 min) is recorded as 0%; in data set [3] (1 hour, listed as NAC), “no effect”; in data set [3] (10 hours, 600 min) it was 10%; in data set [3] (10 hours, listed as NAC, 600 min), 10%. The Alive in data set [3] (1 hour) was found to be 10; in data set [3] (10 hours) it was 9. The Immobile in data set [3] (1 hour) is listed as 0; in data set [3] (10 hours), 1. Moreover, the Moribund in data set [3] (1 hour) and in data set [3] (10 hours) was 0 each time. The pH in solution result in data set [4] (in solution) is on record as “slightly basic pH in solution”. Moreover, the solubility result in data set [4] is reported as “water soluble”.

For the compound `CC1(C)C(C=C(Cl)Cl)C1C(=O)OCc1cccc(Oc2ccccc2)c1` (centres unmarked) [Permethrin], the Mortality in data set [5] (1 hour) worked out at 0%. The Alive in data set [5] (1 hour, ten insects) was determined as 10. Also, in data set [5] (10 hours, 600 min), the Mortality / efficacy was 30%. In data set [5] (10 hours, ten insects), this compound gave an Alive of 7, an Immobile of 0 and a Moribund of 3. Besides, the solubility result in data set [4] is on record as “sparingly soluble in water; also recorded: basically oil soluble”. The effectiveness against lice result in data set [6] is given as “effective against adult lice but not their eggs”.

For `CCC(C)OC(=O)N1CCCCC1CCO` (centres unmarked) [Picaridin], the repellent effect entry in data set [7] was “broad spectrum effects combined with low toxicity”.

As for `O=C1CCC(C(=O)O)N1` (centres unmarked) [Pyrrolidone Carboxylic Acid, 2-Pyrrolidone-5-Carboxylic Acid], in data set [3] (1 hour), the Mortality / efficacy came out at 0%, the Alive was found to be 10, the Immobile worked out at 0 and the Moribund is reported as 0. The compound further registered a Mortality / efficacy in data set [3] (10 hours, 600 min) of 20%. This compound came in with a Mortality / efficacy in data set [3] (10 hours, listed as PCA, 600 min) of 20%. In data set [3] (10 hours), the Alive came out at 8, the Immobile was found to be 0 and the Moribund is 2.
